# Target: T1, Nucleotide-binding oligomerization domain-containing protein 1 (Homo sapiens, UniProt Q9Y239)
# T1 sequence (Q9Y239 whole entry): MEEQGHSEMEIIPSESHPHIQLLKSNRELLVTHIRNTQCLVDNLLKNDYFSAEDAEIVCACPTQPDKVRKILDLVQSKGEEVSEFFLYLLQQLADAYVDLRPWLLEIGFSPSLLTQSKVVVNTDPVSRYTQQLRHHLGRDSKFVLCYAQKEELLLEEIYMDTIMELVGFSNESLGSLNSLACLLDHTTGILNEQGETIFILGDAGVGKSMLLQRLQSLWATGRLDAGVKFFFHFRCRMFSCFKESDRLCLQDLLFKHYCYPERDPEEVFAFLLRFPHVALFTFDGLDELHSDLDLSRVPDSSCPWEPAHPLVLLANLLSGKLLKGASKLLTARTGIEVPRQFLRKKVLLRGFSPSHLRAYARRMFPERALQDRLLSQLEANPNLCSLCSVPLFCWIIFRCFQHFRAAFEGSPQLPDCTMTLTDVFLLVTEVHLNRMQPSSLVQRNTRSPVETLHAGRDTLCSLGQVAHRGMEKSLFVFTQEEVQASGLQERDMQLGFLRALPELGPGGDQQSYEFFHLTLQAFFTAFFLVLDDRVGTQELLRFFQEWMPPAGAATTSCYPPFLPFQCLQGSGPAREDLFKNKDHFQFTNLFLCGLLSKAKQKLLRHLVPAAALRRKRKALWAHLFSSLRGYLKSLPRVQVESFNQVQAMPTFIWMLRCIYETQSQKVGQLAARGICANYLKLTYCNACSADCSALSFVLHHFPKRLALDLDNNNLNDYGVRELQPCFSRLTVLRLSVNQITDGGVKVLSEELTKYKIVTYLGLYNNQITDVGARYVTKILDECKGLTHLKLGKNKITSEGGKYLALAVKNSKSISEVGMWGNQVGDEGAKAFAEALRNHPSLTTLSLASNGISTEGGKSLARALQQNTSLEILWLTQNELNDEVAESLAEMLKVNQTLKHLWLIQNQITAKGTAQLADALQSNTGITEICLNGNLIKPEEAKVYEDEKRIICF
# Assay: blockers of NOD1 pathway activity – revised, SAR follow-up (AID 2333)
row,Compound,IC50
1,Cc1cc(SCC(=O)OCC(=O)C(C#N)c2nc3ccccc3[nH]2)c(C)cc1Br (stereo not drawn),> 20 µM
2,"CCCOC1=CC(=O)C(C=NNC(=S)Nc2ccccc2[N+](=O)[O-])C=C1 (stereo not drawn) [1-(2-nitrophenyl)-3-[[(E)-(6-oxo-4-propoxy-1-cyclohexa-2,4-dienylidene)methyl]amino]thiourea]",7.73 µM
3,"Cc1cc(Br)ccc1SCC(=O)OCC(=O)C(C#N)c1nc2ccccc2[nH]1 (stereo not drawn) [2-[(4-bromo-2-methylphenyl)thio]acetic acid [3-cyano-3-(1,3-dihydrobenzimidazol-2-ylidene)-2-oxopropyl] ester]",> 20 µM
4,"Cc1ccc(O)c(/N=C/C2=CC(Cc3ccccc3)C=C([N+](=O)[O-])C2=O)c1 (stereo not drawn) [(6E)-6-[[(5-methyl-2-oxidanyl-phenyl)amino]methylidene]-2-nitro-4-(phenylmethyl)cyclohexa-2,4-dien-1-one]",> 20 µM
5,Cc1ccc(C)c(SCC(=O)OCC(=O)C(C#N)c2nc3ccccc3[nH]2)c1 (stereo not drawn) [MLS000392255],> 20 µM
6,N#CC(C(=O)COC(=O)CSc1ccc(Cl)cc1)c1nc2ccccc2[nH]1 (stereo not drawn) [MLS-0208254.0001],> 20 µM
7,CCOC1=CC=CC(C=NNC(=S)Nc2ccccc2[N+](=O)[O-])C1=O (stereo not drawn) [MLS-0270696.0001],8.23 µM
8,"N#CC(C(=O)COC(=O)CSc1ccc2ccccc2c1)c1nc2ccccc2[nH]1 (stereo not drawn) [[3-cyano-3-(1,3-dihydrobenzimidazol-2-ylidene)-2-oxopropyl] 2-naphthalen-2-ylsulfanylacetate]",> 20 µM
